{
  "source": "patent US20240240189A1",
  "about": "“CANCER TREATMENT BY TARGETING PROTEINS OR INTERACTIONS OF EPHRINB-RGS3-KIF20A-SEPT7 AXIS” (CITY OF HOPE, priority 2021, published 2024)",
  "key": {"human KIF20A transcript": {"test_system": "human KIF20A transcript", "test": "shRNA screening by dual luciferase reporter assay", "format": "cell-based", "details": "transfected HEK293 cells, shRNA in pNUT vector, cDNA target in psi-CHECK, 48 hours", "protocol": "FIGS. 10a-10c show generation of human KIF20A shRNAs and stable Daoy cell lines. […] Candidate shRNAs in pNUT vector were first screened with a cDNA target cloned in psi-CHECK vector in transfected HEK293 cells, using a dual luciferase reporter assay and their cDNA target in psi-CHECK Vector (Promega). Six candidate shKIF20As were tested with this assay. […] Data are mean±S.D. **P<0.01, ***P<0.001 (two-way ANOVA).\nDNA Constructs, Lentivirus Production: Lentiviral transfer plasmids used in this study include: Hiv7CMV-Cre-myc-2A-GFP (Addgene #117148), Hiv7CMV-GFP, Hiv7CMV-GFP-IRES-Luciferase, as well as Tet-on inducible shRNA plasmids Tet-pLKO-hushKIF20A726 or Tet-pLKO-hushKIF20A181-Puro (shRNA sequences were cloned into pLKO-Tet-On plasmid, Addgene #21915 at Agel/EcoRI sites). […]\nshRNA design and screening: Potential shRNA sequences were selected using web-based design tool (rnaidesigner.thermofisher.com/rnaiexpress/design.do). shRNAs were expressed under the control of a mouse U6 promoter in pNUTs vector which additionally contains a ubiquitin promoter-EGFP expression cassette. Candidate shRNAs in pNUTs and cDNA target in psi-CHECK were co-transfected into HEK293 cells in triplicates; 48 hours later, the firefly and Renilla Luciferase values were determined with Promega's Dual-Luciferase® Reporter Assay System (Promega, E1910). […]"}, "GISC017 cells": {"test_system": "GISC017 cells", "test": "Cell growth of GISC017 cells", "format": "cell-based, human", "details": "vs scrambled shRNA", "source_text": "To further investigate the relevance of KIF20A in human brain tumors, inhibition of KIF20A in patient-derived GBM-initiating/stem cells (GISCs) was examined. As the ERKS axis functions in different types of brain tumor-initiating/stem cells, data obtained from study of GISCs would be applicable to other brain tumor cell types. Multiple lines of patient-derived GISCs were obtained from Dr. Christine Brown. These low passaged GISCs could be expanded in cultures and could engraft in NSG mice^43, 44. FIG. 11 summarizes the results of testing KIF20A in one GISC line (GISC017) by constitutive expression of a control scrambled shRNA or shKIF20A726 (shRNA targeting hKIF20A) in pNUT vector-based lentiviral expression system. […] In the above cell cycle exit analysis, co-staining of differentiation markers (e.g. βlll-tubulin, DCX, or NeuN) was performed, however, these markers were detected in EdU^+Ki67^− (cells having left the cell cycle) but also in some EdU^+Ki67^+ (cells staying in the cell cycle) cells, which might reflect a technical artefact observed with progenitor/stem cells in culture. […]"}},
  "note": "Entries after “also recorded” stand apart in the source; their conditions may differ.",
  "data": [
    {"substance": "5′-GAGGAGTGTCTACATCGAA-TTCAAGAGA-TTCGATGTAGACACTCCTC-3′ (GAGGAGTGTCTACATCGAATTCAAGAGATTCGATGTAGACACTCCTC; hairpin, further chemistry not given here) [shKIF20A726, shRNA targeting human KIF20A transcript]", "values": [
      {"measurement": "inhibition of expression of the human KIF20A transcript (luciferase assay)", "setting": "human KIF20A transcript", "result": "significantly inhibit expression of the human KIF20A transcript"},
      {"measurement": "cell growth rate", "setting": "GISC017 cells", "result": "slower cell growth rate; also recorded: inhibited cell growth"}
    ]}
  ]
}
